# pEC50: −log10 of the molar value.
# How the values were obtained:
# mouse TGR5 receptor = molecular target: T1, mouse TGR5 receptor (Mus musculus, UniProt Q80SS6); test: Mouse TGR5 cAMP production assay (HTRF, Cisbio cAMP HiRange); assay type: cell-based; details: HEK293-EBNA cells overexpressing mouse TGR5, HTRF cAMP HiRange; coded A-D
# T1 construct: expressed in transfected cells; host or cells: HEK293-EBNA (293 c18, ATCC CRL10852), Hygromycin B selection
# T1 sequence (Q80SS6 1-329): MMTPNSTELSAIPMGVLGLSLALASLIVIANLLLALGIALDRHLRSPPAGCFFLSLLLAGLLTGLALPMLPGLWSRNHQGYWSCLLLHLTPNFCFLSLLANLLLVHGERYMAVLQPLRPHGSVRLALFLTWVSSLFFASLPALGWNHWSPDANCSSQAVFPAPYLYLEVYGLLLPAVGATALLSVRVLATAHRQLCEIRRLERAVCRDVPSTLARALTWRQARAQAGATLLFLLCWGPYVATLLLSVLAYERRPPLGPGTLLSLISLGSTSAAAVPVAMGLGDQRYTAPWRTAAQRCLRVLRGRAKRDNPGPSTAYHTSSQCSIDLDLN
# Summary of the method: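 cAMP read by HTRF competition after 1 h room-temperature compound exposure of mouse TGR5-overexpressing HEK293-EBNA cells. Cells were suspended in serum-free DMEM containing 500 μM IBMX; compounds ran as 12-point half-log dilutions in duplicate; EC50 derived.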
# human TGR5 receptor = molecular target: T2, human TGR5 receptor (Homo sapiens, UniProt Q8TDU6); test: Human TGR5 cAMP production assay; assay type: cell-based; details: human TGR5, luminescent cAMP assay; coded A-D; read-out: Human TGR5 Lum. cAMP Activity (EC50)
# T2 construct: host or cells: CHO-K1 (hTGR5-CHO cells)
# T2 sequence (Q8TDU6 1-330): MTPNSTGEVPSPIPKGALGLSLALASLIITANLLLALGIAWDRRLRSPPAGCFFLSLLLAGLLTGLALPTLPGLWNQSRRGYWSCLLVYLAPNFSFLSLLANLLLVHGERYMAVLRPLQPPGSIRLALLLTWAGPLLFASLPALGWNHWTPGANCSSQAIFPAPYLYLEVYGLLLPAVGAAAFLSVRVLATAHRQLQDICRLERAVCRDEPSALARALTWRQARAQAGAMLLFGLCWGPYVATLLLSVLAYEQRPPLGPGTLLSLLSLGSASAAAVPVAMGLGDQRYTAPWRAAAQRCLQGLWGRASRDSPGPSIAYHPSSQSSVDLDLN
# Summary of the method: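 CHO-K1 cells stably expressing human TGR5, with IBMX and cAMP antibody, were exposed to half-log serially diluted compound for 1 h at room temperature. cAMP measured by enzyme-fragment complementation luminescence (XS+ kit) after overnight incubation; EC50 values reported.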
SMILES,pEC50 (mouse TGR5 receptor),pEC50 (human TGR5 receptor)
"Cc1cnccc1-c1cccc([C@H](C)N(CCCC(=O)N(CC(=O)O)CC(=O)O)S(=O)(=O)c2cccc(Cl)c2C)c1 [Compound 21AK, (S)-2,2′-((4-(3-chloro-2-methyl-N-(1-(3-(3-methylpyridin-4-yl)phenyl)ethyl)phenylsulfonamido)butanoyl)azanediyl)diacetic acid]",4.52 to 6.00,4.52 to 6.00
"Cc1cnccc1-c1cccc([C@H](C)N(CCCC(=O)NCCC(=O)NCC(=O)O)S(=O)(=O)c2cccc(Cl)c2C)c1 [Compound 21AM, (S)-2-(3-(4-(3-chloro-2-methyl-N-(1-(3-(3-methylpyridin-4-yl)phenyl)ethyl)phenylsulfonamido)butanamido)propanamido)acetic acid]",6.00 to 7.00,> 7.00
"Cc1cnccc1-c1cccc([C@H](C)N(CCOCC(=O)NCCS(=O)(=O)O)S(=O)(=O)c2cccc(Cl)c2C)c1 [Compound 21AO, (S)-2-(2-(2-(3-Chloro-2-methyl-N-(1-(3-(3-methylpyridin-4-yl)phenyl)ethyl)phenylsulfonamido)ethoxy)acetamido)ethanesulfonic acid]",6.00 to 7.00,6.00 to 7.00
"Cc1cnccc1-c1cccc([C@@H](C)N(CCCC(=O)NCCS(=O)(=O)O)S(=O)(=O)c2cccc(Cl)c2C)c1 [Compound 21AP, (R)-2-(4-(3-Chloro-2-methyl-N-(1-(3-(3-methylpyridin-4-yl)phenyl)ethyl)phenylsulfonamido)butanamido)ethane-sulfonic acid]",4.52 to 6.00,> 7.00
"CCc1cnccc1-c1cccc([C@H](C)N(CCCC(=O)NCS(=O)(=O)O)S(=O)(=O)c2cccc(Cl)c2C)c1 [Compound 21AR, (S)-(4-(3-chloro-N-(1-(3-(3-ethylpyridin-4-yl)phenyl)ethyl)-2-methylphenylsulfonamido)butanamido)methanesulfonic acid]",> 7.00,> 7.00
"CCc1cnccc1-c1cccc([C@H](C)N(CCCC(=O)NCCN)S(=O)(=O)c2cccc(Cl)c2C)c1 [Compound 21AS, (S)-N-(2-aminoethyl)-4-(3-chloro-N-(1-(3-(3-ethylpyridin-4-yl)phenyl)ethyl)-2-methylphenylsulfonamido)butanamide]",6.00 to 7.00,> 7.00
"CCc1cnccc1-c1cc(O)cc(C(C)(C)NS(=O)(=O)c2ccccc2C(F)(F)F)c1 [Compound 22, N-(2-(3-(3-Ethylpyridin-4-yl)-5-hydroxyphenyl)propan-2-yl)-2-(trifluoromethyl)benzenesulfonamide]",> 7.00,> 7.00
"Cc1ccccc1S(=O)(=O)N(CCCC(=O)NCCS(=O)(=O)O)[C@@H](C)c1cccc(-c2ccncc2O)c1 [Compound 22AA, (S)-2-(4-(N-(1-(3-(3-hydroxypyridin-4-yl)phenyl)ethyl)-2-methylphenylsulfonamido)butanamido)ethanesulfonic acid]",4.52 to 6.00,6.00 to 7.00
"Cc1cnccc1-c1cccc(C(C)(C)N(CCCN)S(=O)(=O)c2cccc(Cl)c2C)c1 [Compound 23, N-(3-aminopropyl)-3-chloro-2-methyl-N-(2-(3-(3-methylpyridin-4-yl)phenyl)propan-2-yl)benzenesulfonamide]",4.52 to 6.00,> 7.00
"Cc1cnccc1-c1cccc([C@H](C)N(CCCCN)S(=O)(=O)c2ccccc2C(F)(F)F)c1 [Compound 24, (S)—N-(4-aminobutyl)-N-(1-(3-(3-methylpyridin-4-yl)phenyl)ethyl)-2-(trifluoromethyl)Benzenesulfonamide]",4.52 to 6.00,> 7.00
"Cc1cnccc1-c1cccc(C(CCCCN)NS(=O)(=O)c2ccccc2C(F)(F)F)c1 (stereo not drawn) [Compound 24AA, N-(5-amino-1-(3-(3-methylpyridin-4-yl)phenyl)pentyl)-2-(trifluoromethyl)benzenesulfonamide]",6.00 to 7.00,4.52 to 6.00
"CCc1cnccc1-c1cccc([C@H](C)N(CCCCN)S(=O)(=O)c2cccc(Cl)c2C)c1 [Compound 24AC, (S)-N-(4-aminobutyl)-3-chloro-N-(1-(3-(3-ethylpyridin-4-yl)phenyl)ethyl)-2-methylbenzenesulfonamide]",> 7.00,6.00 to 7.00
"CCOC(=O)CCN/C(=N/C#N)NCCCN(C(C)(C)c1cccc(-c2ccncc2C)c1)S(=O)(=O)c1cccc(Cl)c1C [Compound 25A, Ethyl (E)-3-(3-(3-((3-chloro-2-methyl-N-(2-(3-(3-methylpyridin-4-yl)phenyl)propan-2-yl)phenyl)sulfonamido)propyl)-2-cyanoguanidino)propanoate]",6.00 to 7.00,> 7.00
"Cc1cnccc1-c1cccc(C(C)(C)N(CCCNS(=O)(=O)CCN)S(=O)(=O)c2cccc(Cl)c2C)c1 [Compound 26, N-(3-((2-aminoethyl)sulfonamido)propyl)-3-chloro-2-methyl-N-(2-(3-(3-methylpyridin-4-yl)phenyl)propan-2-yl)benzenesulfonamide]",6.00 to 7.00,> 7.00
"Cc1cnccc1-c1cccc(C(C)(C)N(CCCNS(=O)(=O)CCN2C(=O)c3ccccc3C2=O)S(=O)(=O)c2cccc(Cl)c2C)c1 [Compound 26A, 3-Chloro-N-(3-((2-(1,3-dioxoisoindolin-2-yl)ethyl)sulfonamido)propyl)-2-methyl-N-(2-(3-(3-methylpyridin-4-yl)phenyl)propan-2-yl)benzenesulfonamide]",6.00 to 7.00,> 7.00
COC(=O)CS(=O)(=O)NCCOCCNC(=O)CCCCN([C@@H](C)c1cccc(-c2ccncc2C)c1)S(=O)(=O)c1cccc(Cl)c1C [Compound 26AC],6.00 to 7.00,> 7.00
Cc1cnccc1-c1cccc([C@H](C)N(CCCCC(=O)NCCOCCNS(=O)(=O)CC(=O)O)S(=O)(=O)c2cccc(Cl)c2C)c1 [Compound 26AD],> 7.00,> 7.00
"CCc1cnccc1-c1cccc([C@H](C)N(CCCCNS(=O)(=O)CCC(=O)O)S(=O)(=O)c2cccc(Cl)c2C)c1 [Compound 26AE, (S)-3-(N-(4-(3-chloro-N-(1-(3-(3-ethylpyridin-4-yl)phenyl)ethyl)-2-methylphenylsulfonamido)butyl)sulfamoyl)propanoic acid]",> 7.00,> 7.00
"Cc1cnccc1-c1cccc(C(C)(C)N(CCCNc2ncc(C(=O)O)cn2)S(=O)(=O)c2cccc(Cl)c2C)c1 [Compound 27, 2-((3-((3-chloro-2-methyl-N-(2-(3-(3-methylpyridin-4-yl)phenyl)propan-2-yl)phenyl)sulfonamido)propyl)amino)pyrimidine-5-carboxylic acid]",6.00 to 7.00,> 7.00
"Cc1cnccc1-c1cccc(C(C)(C)N(CCCC(=O)NCCNc2ncc(C(=O)O)cn2)S(=O)(=O)c2cccc(Cl)c2C)c1 [Compound 27AA, 2-((2-(4-(3-chloro-2-methyl-N-(2-(3-(3-methylpyridin-4-yl)Phenyl)propan-2-yl)phenylsulfonamido)butanamido)ethyl)amino)pyrimidine-5-carboxylic acid]",> 7.00,> 7.00
"Cc1cnccc1-c1cccc(C(C)(C)N(CCCC(=O)NCCNC(=N)N)S(=O)(=O)c2cccc(Cl)c2C)c1 [Compound 27AB, 4-(3-chloro-2-methyl-N-(2-(3-(3-methylpyridin-4-yl)phenyl)propan-2-yl)phenylsulfonamido)-N-(2-guanidinoethyl)butanamide]",6.00 to 7.00,> 7.00

# — US11236055B2 (Venenum Biodesign, LLC, priority 2016, dated 2022)
